From patent publication US6562803B2, “Hair-growing agent” (Kyowa Hakko Kogyo Co., Ltd., priority 2001, dated 2003)

Test system: mouse hair follicle epithelial cells
Assay: Cell growth-promoting effect on cultured mouse hair follicle epithelial cells (MTT)
Type: cell-based
Details: cultured 5 days, absorbance at 570 nm, control DMSO alone = 100
Experimental: The skin on the back of a 4-days-old C3H mouse (Charles River Japan, Inc.) was cut off and treated with MEM (Eagle's Minimum Essential Medium) containing 500 units/ml Dispase (Godo Shusei Co., Ltd.) and 5% fetal calf serum (FCS) at 4° C. for 16 hours.
The dermis suspension was filtered through a 212-μm nylon mesh (Nippon Rikagaku Kikai Co., Ltd.) and the filtrate was centrifuged at 1000 rpm for 5 minutes to obtain pellets containing hair follicle tissue. To the pellets was added calcium/magnesium-free PBS (Dulbecco's Phosphate-Buffered Saline) and the pellets were suspended therein using a pipette. The resulting suspension was allowed to stand for 15 minutes to precipitate hair follicle tissue. The same procedure as above (addition of calcium/magnesium-free PBS, suspending by use of a pipette, and precipitation by allowing the suspension to stand for 15 minutes) was repeated three times using the obtained hair follicle tissue.
To the resulting mixture was added DMEM containing 10% FCS to prepare a hair follicle tissue cell suspension having a density of 3×10^5 cells/ml. The hair follicle tissue cell suspension was put into wells of a 24-well collagen-coated plate (Iwaki Glass Co., Ltd.) in an amount of 1 ml/well, followed by culturing in 5% CO2 at 37° C. for 24 hours.
During the culturing, the medium was replaced with a fresh one every other day.
The degree of cell growth was measured according to the method using MTT [3-(4,5-dimethylthiazol-2-yl)-2,5-diphenyl tetrazolium bromide]
To each well of the 24-well microplate (2 cm^2/well) was added a PBS solution of MTT (5 mg/ml) in an amount of 1/10 by volume based on 1 ml of the culture. The plate was shaken to make the mixture homogeneous, followed by culturing in 5% CO2 at 37° C. for 4 hours. Four hours later, the culture was sucked and 1 ml of a 0.04 mol/l solution of HCl in isopropyl alcohol was added to each well to completely dissolve formazan formed in the wells.
The degree of cell growth was determined by measuring the absorbance at 570 nm based on that at 650 nm as a control.

| SMILES | Relative cell growth rate based on the control as 100 (1 μmol/l) | Relative cell growth rate based on the control as 100 (30 μmol/l) |
| --- | --- | --- |
| CCCCCCCC/C=C\CCCCCCCC(=O)OCC(COP(=O)(O)O)OC(C)=O (stereo not drawn) [1-O-oleoyl-2-O-acetylglyceryl-3-phosphoric Acid] | 327 | – |
| Cc1c(C)c2c(c(C)c1O)CCC(C)(CCCC(C)CCCC(C)CCCC(C)C)O2 (racemic) [dl-α-Tocopherol, dl-α-tocopherol] | – | 178 |
| Oc1cc(O)c2c(c1)O[C@H](c1ccc(O)c(O)c1)[C@H](O)[C@H]2c1c(O)cc(O)c2c1O[C@H](c1ccc(O)c(O)c1)[C@H](O)C2 [Procyanidin B-2, epicatechin-(4β→8)-epicatechin] | – | 295 |
